Reference: PubChem BioAssay AID306 (DTP/NCI, 2004)
Several values for one entry are separate records, joined by “and”; a condition that tells them apart may be missing. Equal entries are not always repeated. Inconclusive results and toxic doses are left out. Rule for the calls: active = survival T/C of 150% or more; inactive = T/C below 125% in these data.

Tested on: BDF1 mice, L1210 Methyl-GAG-resistant leukemia, survival T/C
Assay: NCI In Vivo Anticancer Drug Screen. Data for tumor model L1210 Leukemia resistant to Methyl-GAG; NSC 32946 (subcutaneous) in B6D2F1 (BDF1) mice
Conditions: endpoint: mean survival time, higher = longer survival
Protocol: The antitumor activity of compounds was measured in mice bearing transplantable tumors. Survival or tumor size were measured and the results are expressed as the measurement made in the treated group (T) divided by the measurement made in the vehicle treated control group (C). The tumor model used in this assay is L1210 Leukemia resistant to Methyl-GAG; NSC 32946 (subcutaneous) in B6D2F1 (BDF1) mice

[1] = dose: 31.0 mg/kg/injection, schedule: Q01DX Z (ip), vehicle: carboxymethylcellulose (CMC)
[2] = dose: 8.0 mg/kg/injection, schedule: Q01DX Z (ip), vehicle: carboxymethylcellulose (CMC)
[3] = dose: 16.0 mg/kg/injection, schedule: Q01DX Z (ip), vehicle: carboxymethylcellulose (CMC)
[4] = dose: 500.0 mg/kg/injection, schedule: Q01DX Z (ip), vehicle: carboxymethylcellulose (CMC)

Measured: T/C

Cc1n[nH]c(=O)[nH]c1=O
inactive: dose: 0.8 mg/kg/injection, schedule: Q01DX Z (ip), vehicle: other 100 % of control | dose: 1.6 mg/kg/injection, schedule: Q01DX Z (ip), vehicle: other 102 % of control | dose: 3.1 mg/kg/injection, schedule: Q01DX Z (ip), vehicle: other 98 % of control | dose: 6.25 mg/kg/injection, schedule: Q01DX Z (ip), vehicle: other 120 % of control | dose: 6.3 mg/kg/injection, schedule: Q01DX Z (ip), vehicle: other 100 % of control | dose: 12.5 mg/kg/injection, schedule: Q01DX Z (ip), vehicle: other 101 % of control | dose: 25.0 mg/kg/injection, schedule: Q01DX Z (ip), vehicle: other 100 % of control | dose: 50.0 mg/kg/injection, schedule: Q01DX Z (ip), vehicle: other 95 % of control and 103 % of control | dose: 100.0 mg/kg/injection, schedule: Q01DX Z (ip), vehicle: other 91 % of control | dose: 200.0 mg/kg/injection, schedule: Q01DX Z (ip), vehicle: other 88 % of control | dose: 400.0 mg/kg/injection, schedule: Q01DX Z (ip), vehicle: other 89 % of control

CN(Cc1cnc2nc(N)nc(N)c2n1)c1ccc(C(=O)N[C@@H](CCC(=O)O)C(=O)O)cc1
active: dose: 0.31 mg/kg/injection, schedule: Q01DX Z (ip), vehicle: other 157 % of control and 164 % of control (2×) | dose: 0.43 mg/kg/injection, schedule: Q01DX Z (ip), vehicle: other 160 % of control | dose: 0.62 mg/kg/injection, schedule: Q01DX Z (ip), vehicle: other 235 % of control and 245 % of control and 246 % of control | dose: 0.87 mg/kg/injection, schedule: Q01DX Z (ip), vehicle: other 255 % of control | dose: 1.25 mg/kg/injection, schedule: Q01DX Z (ip), vehicle: other 262 % of control and 270 % of control and 276 % of control | dose: 1.5 mg/kg/injection, schedule: Q01DX Z (ip), vehicle: other 194 % of control | dose: 1.75 mg/kg/injection, schedule: Q01DX Z (ip), vehicle: other 301 % of control | dose: 2.5 mg/kg/injection, schedule: Q01DX Z (ip), vehicle: other 178 % of control | dose: 3.0 mg/kg/injection, schedule: Q01DX Z (ip), vehicle: other 234 % of control
inactive: dose: 3.5 mg/kg/injection, schedule: Q01DX Z (ip), vehicle: other 116 % of control | dose: 5.0 mg/kg/injection, schedule: Q01DX Z (ip), vehicle: other 95 % of control and 118 % of control

CSCS(=O)C[C@H](CO)NC(=O)/C=C/c1c(C)[nH]c(=O)[nH]c1=O (stereo partly specified)
inactive: dose: 0.06 mg/kg/injection, schedule: Q01DX Z (ip), vehicle: saline 97 % of control | dose: 0.12 mg/kg/injection, schedule: Q01DX Z (ip), vehicle: saline 97 % of control | dose: 0.25 mg/kg/injection, schedule: Q01DX Z (ip), vehicle: saline 106 % of control and 113 % of control | dose: 0.5 mg/kg/injection, schedule: Q01DX Z (ip), vehicle: saline 112 % of control | dose: 1.0 mg/kg/injection, schedule: Q01DX Z (ip), vehicle: saline 96 % of control

c1ccc(CNc2ncnc3[nH]ncc23)cc1
inactive: dose: 0.97 mg/kg/injection, schedule: Q01DX Z (ip), vehicle: carboxymethylcellulose (CMC) 107 % of control | dose: 1.95 mg/kg/injection, schedule: Q01DX Z (ip), vehicle: carboxymethylcellulose (CMC) 102 % of control | dose: 3.9 mg/kg/injection, schedule: Q01DX Z (ip), vehicle: carboxymethylcellulose (CMC) 108 % of control and 121 % of control | dose: 7.8 mg/kg/injection, schedule: Q01DX Z (ip), vehicle: carboxymethylcellulose (CMC) 100 % of control and 103 % of control | dose: 15.5 mg/kg/injection, schedule: Q01DX Z (ip), vehicle: carboxymethylcellulose (CMC) 107 % of control | [1] 110 % of control

Oc1cc(CN(CCCl)CCCl)c(O)cc1CN(CCCl)CCCl
inactive: dose: 1.88 mg/kg/injection, schedule: Q01DX Z (sc), vehicle: steriod suspending solution 103 % of control | dose: 3.75 mg/kg/injection, schedule: Q01DX Z (sc), vehicle: steriod suspending solution 111 % of control | dose: 7.5 mg/kg/injection, schedule: Q01DX Z (sc), vehicle: steriod suspending solution 115 % of control

O=C1CCC(N2C(=O)c3ccccc3C2=O)C(=O)N1 (stereo unspecified)
inactive: dose: 18.75 mg/kg/injection, schedule: Q01DX Z (ip), vehicle: carboxymethylcellulose (CMC) 96 % of control | dose: 37.5 mg/kg/injection, schedule: Q01DX Z (ip), vehicle: carboxymethylcellulose (CMC) 102 % of control | dose: 75.0 mg/kg/injection, schedule: Q01DX Z (ip), vehicle: carboxymethylcellulose (CMC) 102 % of control | dose: 150.0 mg/kg/injection, schedule: Q01DX Z (ip), vehicle: carboxymethylcellulose (CMC) 94 % of control

OCC1OC(n2cnc3c(=S)nc[nH]c32)C(O)C1O (stereo unspecified)
inactive: dose: 2.0 mg/kg/injection, schedule: Q01DX Z (ip), vehicle: carboxymethylcellulose (CMC) 100 % of control | dose: 4.0 mg/kg/injection, schedule: Q01DX Z (ip), vehicle: carboxymethylcellulose (CMC) 100 % of control | [2] 107 % of control | [3] 115 % of control | [1] 120 % of control | [4] 93 % of control

CN(N=O)C(N)=O
active: dose: 25.0 mg/kg/injection, schedule: Q01DX Z (ip), vehicle: saline 178 % of control
inactive: dose: 3.2 mg/kg/injection, schedule: Q01DX Z (ip), vehicle: saline 97 % of control | dose: 6.3 mg/kg/injection, schedule: Q01DX Z (ip), vehicle: saline 113 % of control | dose: 12.5 mg/kg/injection, schedule: Q01DX Z (ip), vehicle: saline 115 % of control

CC1CCOS(=O)O1 (stereo unspecified)
inactive: dose: 2.5 mg/kg/injection, schedule: Q01DX Z (ip), vehicle: carboxymethylcellulose (CMC) 95 % of control | dose: 5.0 mg/kg/injection, schedule: Q01DX Z (ip), vehicle: carboxymethylcellulose (CMC) 101 % of control | dose: 10.0 mg/kg/injection, schedule: Q01DX Z (ip), vehicle: carboxymethylcellulose (CMC) 97 % of control | dose: 20.0 mg/kg/injection, schedule: Q01DX Z (ip), vehicle: carboxymethylcellulose (CMC) 97 % of control | dose: 40.0 mg/kg/injection, schedule: Q01DX Z (ip), vehicle: carboxymethylcellulose (CMC) 95 % of control | dose: 80.0 mg/kg/injection, schedule: Q01DX Z (ip), vehicle: carboxymethylcellulose (CMC) 92 % of control

O[C@H](CN1CC1)[C@@H](O)CN1CC1
active: dose: 0.5 mg/kg/injection, schedule: Q01DX Z (ip), vehicle: carboxymethylcellulose (CMC) 170 % of control and 178 % of control
inactive: dose: 0.06 mg/kg/injection, schedule: Q01DX Z (ip), vehicle: carboxymethylcellulose (CMC) 97 % of control | dose: 0.12 mg/kg/injection, schedule: Q01DX Z (ip), vehicle: carboxymethylcellulose (CMC) 110 % of control | dose: 1.0 mg/kg/injection, schedule: Q01DX Z (ip), vehicle: carboxymethylcellulose (CMC) 100 % of control | dose: 63.0 micrograms/kg/injection, schedule: Q01DX Z (ip), vehicle: carboxymethylcellulose (CMC) 101 % of control | dose: 125.0 micrograms/kg/injection, schedule: Q01DX Z (ip), vehicle: carboxymethylcellulose (CMC) 109 % of control

CCN(CC)CCNc1ccc(C)c2sc3ccccc3c(=O)c12
inactive: dose: 1.56 mg/kg/injection, schedule: Q01DX Z (ip), vehicle: methylcellulose (MC) 97 % of control | dose: 6.25 mg/kg/injection, schedule: Q01DX Z (ip), vehicle: methylcellulose (MC) 102 % of control | dose: 12.5 mg/kg/injection, schedule: Q01DX Z (ip), vehicle: methylcellulose (MC) 104 % of control | dose: 25.0 mg/kg/injection, schedule: Q01DX Z (ip), vehicle: methylcellulose (MC) 103 % of control and 113 % of control | dose: 50.0 mg/kg/injection, schedule: Q01DX Z (ip), vehicle: methylcellulose (MC) 119 % of control
active: dose: 100.0 mg/kg/injection, schedule: Q01DX Z (ip), vehicle: methylcellulose (MC) 151 % of control

CN(C)CC(=O)c1ccc(O)c(O)c1
inactive: dose: 31.25 mg/kg/injection, schedule: Q01DX Z (ip), vehicle: saline 98 % of control | dose: 62.5 mg/kg/injection, schedule: Q01DX Z (ip), vehicle: saline 96 % of control | dose: 125.0 mg/kg/injection, schedule: Q01DX Z (ip), vehicle: saline 99 % of control | dose: 250.0 mg/kg/injection, schedule: Q01DX Z (ip), vehicle: saline 99 % of control and 100 % of control | dose: 500.0 mg/kg/injection, schedule: Q01DX Z (ip), vehicle: saline 97 % of control and 106 % of control

O=c1cn[nH]c(=O)[nH]1
inactive: dose: 62.5 mg/kg/injection, schedule: Q01DX Z (ip), vehicle: carboxymethylcellulose (CMC) 96 % of control | dose: 125.0 mg/kg/injection, schedule: Q01DX Z (ip), vehicle: carboxymethylcellulose (CMC) 106 % of control | dose: 250.0 mg/kg/injection, schedule: Q01DX Z (ip), vehicle: carboxymethylcellulose (CMC) 116 % of control | [4] 114 % of control | dose: 1000.0 mg/kg/injection, schedule: Q01DX Z (ip), vehicle: carboxymethylcellulose (CMC) 112 % of control

CCn1cnc2c(=S)nc[nH]c21
inactive: [2] 113 % of control | [3] 106 % of control | [1] 120 % of control
